What was measured:
Beta-lactamase OXA-1 = Beta-lactamase OXA-1 (Escherichia coli, UniProt P13661); assay: Kinetic Assay; details: pH 7.2
Procedure: (§1) Steady-state kinetics were performed on an Agilent 8453 diode array spectrophotometer (Palo Alto, CA) in 50 mM sodium phosphate buffer (pH 7.2) supplemented with 20 mM NaHCO3.

Oxa40 = Oxa40 (Acinetobacter baumannii, UniProt Q8RLA6); assay: Kinetic Assay; details: pH 7.2
Procedure: as §1

Beta-lactamase OXA-1, sequence (P13661 whole entry): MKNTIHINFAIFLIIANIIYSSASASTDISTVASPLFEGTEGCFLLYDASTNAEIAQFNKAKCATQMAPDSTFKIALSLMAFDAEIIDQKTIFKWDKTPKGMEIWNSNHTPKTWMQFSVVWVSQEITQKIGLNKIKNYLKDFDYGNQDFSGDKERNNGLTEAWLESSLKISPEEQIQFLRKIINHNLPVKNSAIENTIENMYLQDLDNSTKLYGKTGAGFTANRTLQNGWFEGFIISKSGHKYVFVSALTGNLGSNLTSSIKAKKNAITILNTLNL
Oxa40, sequence (Q8RLA6 whole entry): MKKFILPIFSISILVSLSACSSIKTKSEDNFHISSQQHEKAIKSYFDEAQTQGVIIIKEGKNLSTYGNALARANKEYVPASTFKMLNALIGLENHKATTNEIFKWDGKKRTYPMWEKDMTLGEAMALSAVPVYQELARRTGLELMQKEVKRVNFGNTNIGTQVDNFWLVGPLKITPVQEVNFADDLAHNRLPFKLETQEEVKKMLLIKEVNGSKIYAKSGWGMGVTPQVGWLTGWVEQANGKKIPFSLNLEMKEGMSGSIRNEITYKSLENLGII

O=C(O)C1=CS[C@@H]2/C(=C\c3cc4n(n3)CSC4)C(=O)N12 [Penem 1]
IC50 (Beta-lactamase OXA-1): 30 nM | Ki (Beta-lactamase OXA-1): 50 nM | IC50 (Oxa40): 150 nM | Ki (Oxa40): 30 nM

O=C(O)C1=CS[C@@H]2/C(=C\c3cn4c(n3)COCC4)C(=O)N12 [Penem 3]
IC50 (Beta-lactamase OXA-1): 60 nM | Ki (Beta-lactamase OXA-1): 380 nM | IC50 (Oxa40): 160 nM | Ki (Oxa40): 150 nM

Source: BindingDB's records for doi:10.1074/jbc.M113.533562 (Case Western Reserve University, 2014)
